The values that follow come from US20190210969A1, “INTRAESOPHAGEAL ADMINISTRATION OF TARGETED NITROXIDE AGENTS FOR PROTECTION AGAINST IONIZING IRRADIATION-INDUCED ESOPHAGITIS” (University of Pittsburgh - Of the Commonwealth System of …, priority 2010, published 2019).

Series [1] can be described thus: JP4-039 uptake in normal tissue and orthotopic tumors after intraesophageal administration (EPR). Type of series: in vivo, mouse. How it is done: Lastly, to determine whether JP4-039 was taken up by other tissue, esophagus, lung orthotopic tumor, liver, and peripheral blood samples were taken 10, 30, and 60 minutes after intraesophageal administration of the compound. Samples were snap-frozen on dry ice and JP4-039 content was quantified by EPR analysis.
To determine if the orally-administered JP4-039 also reached other tissues and orthotopic tumors, esophagus, peripheral blood, bone marrow, liver, and 3LL orthotopic tumors were harvested at 10, 30, and 60 minutes after intraesophageal administration of JP4-039, followed by quantification by EPR. […] JP4-039 levels in peripheral blood and orthotopic tumor peaked at 30 minutes at 51.1 and 276.0 pmol/mg protein, respectively. […] Lower levels of JP4-039 were detected in bone marrow up to 60 minutes after drug swallow compared to levels in liver and tumor tissue.

Series [2] deals with C57BL/6NHsd mice, upper body irradiation. Nature of the series: Survival after upper body (thoracic) irradiation, irradiation-induced esophagitis. The series is classed as in vivo, mouse. The settings on record: for protection (survival): 4 μg JP4-039 in 110 μl F15 10 minutes before, MnSOD-PL 24 hours prior, preliminary data. From the text: Animals and animal care. C57BL/6HNsd female and C57BL/6JHNsd-GFP male mice (22-22 gm) were housed, five per cage and fed standard laboratory chow according to previous publications (3). C57BL/6NHsd mice (15 per group) were irradiated (details are given in the next section) and received swallowed JP4-039 or MnSOD-PL pre- or post-radiation. The mice were monitored for development of esophagitis.
Irradiation. Mice were irradiated to 28 or 29 Gy to the upper body using a JL Shepherd Mark I cesium irradiator (J.L. Shepherd and Associates, San Fernando, Ca, USA) ([…]), according to published methods (Epperly M W, et al. Zhang X, Nie S, Cao S, Kagan V, Tyurin V and Greenberger J S: MnSOD-plasmid liposome gene therapy effects on ionizing irradiation induced lipid peroxidation of the esophagus. In Vivo 19: 997-1004, 2005). The head and abdomen were shielded, as described previously (Stickle R L, et al. Prevention of irradiation-induced esophagitis by plasmid/liposome delivery of the human manganese superoxide dismutase (MnSOD) transgene. Radiat Oncol Invest Clinical & Basic Res 7: 204-217, 1999), so that only the thoracic cavity received irradiation.
Intraesophageal drug administration. The methods for preparation of MnSOD-plasmid liposomes using PNVL3 lipid have been published previously (Epperly M W, et al. Modulation of radiation-induced cytokine elevation associated with esophagitis and esophageal stricture by manganese superoxide dismutase-plasmid/liposome (MnSOD-PL) gene therapy. Radiat Res 155: 2-14, 2001). Briefly, 100 μl liposomes containing […] plasmid were injected by syringe intraesophageally into non-anesthetized mice immediately after they received 100 μl distilled water.
The stock solutions described above were diluted, so that the total amount of JP4-039 administered to each animal was 400 μg. Mice were immobilized for irradiation with intraperitoneal Nembutal anesthesia after administration of JP4-039 as described above. Mice were exposed to single-dose (29 Gy) or fractionated radiation (11.5 Gy per day for four days) to the upper body.

The subject of series [3] is 32D cl 3 mouse hematopoietic progenitor cell line. In words: Irradiation survival curves of 32D cl 3 cells (colony assay). The series is classed as cell-based. To be noted: for ñ (shoulder on the survival curve): 0 to 8 Gy. How it is done: Groups of 15 mice received intraperitoneal injection of 10 mg. per kilogram of each indicated GS-nitroxide compound or carrier (Cremphora plus alcohol at 1 to 1 ratio, then diluted 1 to 10 in distilled water). Mice received 10 mg per kilogram intra-peritoneal injection 24 hours prior to total body irradiation. Control mice received radiation alone. […] (P=0.0005) FIG. 6 is a graph showing that GS-nitroxide JP4-039 is an effective hematopoietic cell radiation mitigator when delivered 24 hr after irradiation. Irradiation survival curves were performed on cells from the 32D cl 3 mouse hematopoietic progenitor cell line, incubated in 10 μM JP4-039 for 1 hour before irradiation, or plated in methylcellulose containing 10 μM […] after irradiation. Cells were irradiated from 0 to 8 Gy, plated in 0.8% methylcellulose containing media, and incubated for 7 days at 37° C. Colonies of greater than 50 cells were counted and data analyzed by linear quadratic and single-hit, multi-target models.

Series [4] in a line: JP4-039 content of sorted esophageal SP and NSP cells (EPR). The series is classed as in vivo, mouse. The settings on record: 20 esophagi excised 10 minutes after intraesophageal delivery. The method, then: Ten minutes after administration of JP4-039, esophagi were removed, minced, and incubated in a solution of 0.2% Collagenase type II, 0.3% Dispase and 0.025% Trypsin for 45 minutes at 37 degrees Celsius. Cell aggregates were then passed through sequentially smaller needles (to 23-gauge) and filtered with a […] cell strainer into DMEM supplemented with 40% fetal bovine serum. Suspensions were pelleted via centrifugation and resuspended at 10^6 cells/ml in pre-warmed DMEM (2% FBS, 10 mM HEPES). Cells were incubated in 6 μg/ml Hoechst 33342 for 90 minutes to identify SP cells. Verapamil, which inhibits the efflux of Hoechst, was used as a concentration of 50 μM for the purpose of cell gating. Cells were pelleted and resuspended in cold Hank's Balanced Salt Solution (HBSS) (2% FBS, 10 mM HEPES) and incubated with anti-CD45-phycoerythrin (PE)-fluorescein isothiocyanate (FITC) and/or anti-Ter119-PE-Cy7 antibodies at 1:200 dilutions, to discriminate hematopoietic cells. Antibody-treated cells were incubated on ice for 20 minutes, washed in cold HBSS, filtered, pelleted, and resuspended in cold HBSS. […] SP and NSP cells were quantified, sorted into separate collection tubes containing cold HBSS (2% FBS, 10 mM HEPES) and pelleted. […] JP4-039 content in sorted SP and NSP cells was quantified by electron paramagnetic resonance (EPR) analysis using a JEOL-RE1XEPR spectrometer. […]

A short description of series [5]: Uptake of swallowed JP4-039 in esophageal SP cells incl. GFP+ marrow chimeric mice. The series is classed as in vivo, mouse.
[6] abbreviates: intraesophageal, F15 formulation.

In the case of `CC(C)C[C@@H](/C=C/CC(=O)NC1CC(C)(C)N([O])C(C)(C)C1)NC(=O)OC(C)(C)C` [JP4-039, TEMPO-4-yl-(S,E)-5-(tert-butoxycarbonylamino)-7-methyloct-3-enamide], the “time of peak level in liver” value in series [1] (setting [6]) was 10 min. For the same compound, the “time of peak level in orthotopic tumor” value in series [1] (setting [6]) came out at 30 min. The “time of peak level in peripheral blood” value in series [1] (setting [6]) amounted to 30 min. In addition, the “peak JP4-039 level in orthotopic tumor” value in series [1] (intraesophageal, F15 formulation, 3LL tumor, at 30 minutes, EPR) worked out at 276.0 pmol/mg protein. The “peak JP4-039 level in liver” value in series [1] (intraesophageal, F15 formulation, at 10 minutes, EPR) is given as 122/2. The “peak JP4-039 level in peripheral blood” value in series [1] (intraesophageal, F15 formulation, at 30 minutes, EPR) worked out at 51.1 pmol/mg protein. For the same compound, the “JP4-039 level in bone marrow compared to liver and tumor tissue” value in series [1] (up to 60 minutes after drug swallow) is listed as “Lower levels”. For the same compound, the survival entry in series [2] (400 μg in F15 immediately prior to single fraction 29 Gy thoracic irradiation, vs F15 vehicle only, p=0.0384) is “increased survival”; in series [2] (prior to each of four fractions of 11.5 Gy thoracic irradiation, vs F15 only, p=0.0388), “increased survival”. For the same compound, the “protection (survival)” value in series [2] (29 Gy upper body irradiation, vs F15 or radiation alone) is “protective”; in series [2] (four daily sessions of 12 Gy, p=0.0430), “protective”. For the same compound, the “ñ (shoulder on the survival curve)” value in series [3] (10 μM for 1 hour before irradiation, cells alone 1.29±0.13, p=0.0109) was 5.25±0.84; in series [3] (10 μM in methylcellulose after irradiation, cells alone 1.29±0.13, p=0.0022), 4.55±0.47. Moreover, the “survival of 32D c13 cells” value in series [3] (10 μM for one hour, 0-8 Gy irradiation, preliminary data) is listed as “increased survival”. For the same compound, the “JP4-039 content of sorted SP cell pellet” value in series [4] (101,00 SP cells) was determined as 275.1 fmol. Further, the “JP4-039 content of sorted NSP cells” value in series [4] (3,387,00 NSP cells) came to 221.3 fmol. Besides, the “uptake in GFP+ esophageal (SP) stem cells” value in series [5] (GFP+ marrow chimeric mice) was “reaches GFP+ esophageal (SP) stem cells”. Moreover, the “uptake in esophageal SP cells” value in series [5] (preliminary data) is “reaches SP cells”.
